{
  "source": "patent US20210308211A1",
  "about": "“METHOD OF TREATING VIRAL INFECTIONS” (priority 2020, published 2021)",
  "key": {"[1]": {"system": "MRL/lpr B cells", "conditions": "cited from earlier work"}, "[2]": {"system": "MRL/lpr mice", "test": "Gougerot-Sjögren syndrome model, salivary glands of MRL/lpr mice", "assay_type": "in vivo, mouse", "description": "In this study MRL/lpr female 11-12 week old mice were used with 10 mice per group for statistical analysis. Each mouse received a single injection by retro-orbital, 100 μg of peptide P140 of 100 μl in […]. After 5 days, the mouse blood was collected in heparinized tube and salivary glands (GSS) were removed and placed in Eppendorf tubes containing PBS pH 7.4.\nThe number of foci site (FS) is determined for each mouse. A focus is defined as an aggregate of 50 or more cells.\nThe level of inflammation SG is determined semiquantitatively by a scoring system (0-3 scale): Grade 0: no inflammatory cells; Grade 1: few perivascular inflammatory and periductal Infiltrates (<100 cells); Grade 2: moderate number of perivascular inflammatory and periductal Infiltrates (100-500 cells); Grade 3: extensive inflammation with inflammatory foci broad (>500 cells).\nCells of total salivary glands stained with fluorescently were labeled antibodies for 40 min at 4° C., Were Collected data by FACSCalibur.\nThe weight of salivary glands Was Measured after-excision. DNase I (1 mg/ml) and collagenase D (50 μg/ml) were used to digest the salivary glands. Total cell counts were evaluated after the digestion.\nThe MRL/lpr mice (10 mice per arm) were injected with peptide P140 (100 μl/mouse iv). Five days after injection the mice were sacrificed and SGs collected as indicated above. The tissue was cut by the cryostat sections of 5 μm. The sections were labeled with hematoxylin/eosin staining is the method most frequently used in tissue histology. The level of inflammation and the number of FS were determined (FIGS. 17 and 18). Representative pictures are from sample control group 4 and group Treated sample (Bar 500 μm)."}, "[3]": {"system": "Balb/c mice", "test": "31-day HDM-induced asthma model, BAL cell counts", "assay_type": "in vivo, mouse", "conditions": "for B cells / DCs / Eosinophils / Macrophages / Neutrophils / T cells / Total cells: BAL, per mouse", "description": "The aim of this study was to evaluate the effect of the P140 phosphopeptide administered systemically (intravenously) in a 31-day model of HDM-induced asthma in mice. The P140 phosphopeptide was solubilized in sterile water (Braun) and 10x concentrate sterile saline was added to adjust osmolarity to 300 mosm. Osmolarity was controlled with a micro osmometer (Löser, type 15) and validated (303 mosm). The P140 phosphopeptide was used in vivo at the dose of 4 mg/kg by intravenous (i.v.) routes. Control animals received equivalent volumes (2 ml/kg) of saline (Table 8).\nNine-week-old male Balb/c mice were sensitized by intranasal (i.n.) administration of HDM extract (Stallergenes): 1 μg in 25 μl saline on days 0, 1, 2, 3, 4, and 10 μg on days 14 and 21. Mice were challenged by i.n. administration of HDM (1 μg) and/or saline on days 28, 29 and 30. Mice were treated by i.v. injection (2 ml/kg) of P140 or solvent on day 25 (see FIG. 12).\nBAL was performed after airway responsiveness measurement twenty-four hours after HDM challenge as described (Daubeuf et al. 2012). Mice were anaesthetized IP (Ketamine 150 mg/kg—Xylasine 10 mg/kg). Blood was collected from the heart, centrifuged at 10,000 g for 2 min and serum stored at −20° C.\nAfter semi-excision of the trachea, a plastic cannula was inserted, and airspace washed with 0.5 ml of 0.9% NaCl injected with a 1 ml syringe. This procedure was performed 10 times. The initial concentrated supernatant of the 2 first lavages (volume=2×0.5 ml administered, approximately 0.5 ml recovered) was collected for cytokine measurements. The remaining BAL fluid was centrifuged (300 g for 5 min, 4° C.), and cell pellets pooled. The cell pellet was suspended in 500 μl of 0.9% NaCl and used for total cell counts evaluated on a Muse® Cell Analyser (Millipore). Differential cell counts were assessed by flow cytometry (LSRII® cytometer, BD Bioscience). BAL cells were added with FCblock (0.5 μl, 553142, BD Bioscience) in a black microplate, incubated for 20 min at room temperature. Then, marker antibodies were added: CD11c-FITC (557400, BD bioscience), Gr-1-PeeFluor610 (61-5931-82, eBioscience), F4/80-PE (12-4801-82, eBioscience), CD11b-APC-Cy7 (557657, BD bioscience), CD45-AlexaFluor700 (103128, BioLegend), CD3-BV605 (564009, BD bioscience), CD19-PE-Cy7 (552854, BD bioscience). Antibodies were incubated with BAL cells for 30 min at room temperature before DAPI (5 μl, BD bioscience) addition, and flow cytometry was performed immediately.\nAll mice were sensitized to HDM on days 0, 1, 2, 3, 4, 14, 21, and challenged either with saline ([…]) or HDM (challenge with allergen). Results are presented as means±SEM. Differences between groups were tested for statistical significance using Student's t test for inflammatory cells and a two-way ANOVA followed by Bonferroni post-test for airway responses."}, "[4]": {"system": "C57BL/6 mice", "test": "DSS-induced colonic inflammation model", "assay_type": "in vivo, mouse", "from_the_text": "Normal mice (C57BL/6; 7 week-old; males) have received the P140 peptide ([…], iv route; 10 mice) or saline only (control group; 10 mice) at days −2 and −1. At day 0, dextran sodium sulfate (DSS; 2-3%) was administrated to induce the disease.\nAnimals were examined every day for body weight loss, stool consistency, diarrhea, and blood in the feces. The animals were sacrificed around day 14 or at any time if they are very sick (loss >25% body weight). Statistics: Mann-Whitney (exact)"}, "[5]": {"conditions": "5 days after one single iv injection"}, "[6]": {"conditions": "5 days after one single iv injection, flow cytometry"}, "[7]": {"conditions": "HDM + P140 (i.v. 4 mg/kg day 25, HDM-challenged)"}, "[8]": {"conditions": "P140 i.v. 4 mg/kg day 25, HDM-sensitized, saline-challenged (chronic asthma)"}, "[9]": {"conditions": "chronic asthma (saline challenge), 4 mg/kg i.v. day 25, BAL, non-significant"}, "[10]": {"conditions": "chronic asthma (saline challenge), 4 mg/kg i.v. day 25, BAL, p<0.05"}},
  "note": "Several values for one entry are separate records, joined by “and”; a condition that tells them apart may be missing. Equal values may be shown once. Non-standard residues stand in square brackets, D forms with d. Residues, ends and D or L forms follow the SMILES beside them. pS = N[C@@H](COP(=O)(O)O)C(=O)O",
  "data": [
    {"smiles": "CC[C@H](C)[C@H](NC(=O)[C@H](Cc1ccccc1)NC(=O)[C@H](C)NC(=O)[C@H](Cc1ccc(O)cc1)NC(=O)CNC(=O)[C@H](CCCNC(=N)N)NC(=O)[C@@H]1CCCN1C(=O)[C@H](CCCCN)NC(=O)CNC(=O)[C@H](COP(=O)(O)O)NC(=O)[C@H](CCCNC(=N)N)NC(=O)[C@H](CCCCN)NC(=O)[C@H](CO)NC(=O)[C@H](Cc1ccc(O)cc1)NC(=O)[C@@H](NC(=O)[C@H](CCSC)NC(=O)[C@H](Cc1c[nH]cn1)NC(=O)[C@@H](NC(=O)[C@@H](N)CCCNC(=N)N)[C@@H](C)CC)C(C)C)C(=O)N[C@@H](CCC(=O)O)C(=O)N[C@@H](Cc1ccc(O)cc1)C(=O)O", "note": "[Compound P140] (H-RIHMVYSKR[pS]GKPRGYAFIEY-OH; N-terminus and C-terminus assumed)", "values": [
      {"measurement": "Autophagy markers SQSTM1 and MAP1LC3", "setting": "[1]; MRL/lpr B cells after P140 treatment (Page et al., 2011)", "result": "accumulation"},
      {"measurement": "Expression of HSPA8 and LAMP-2A", "setting": "[1]; MRL/lpr B cells after treating mice (Page et al., 2011; Macri et al., in press)", "result": "down-regulated"},
      {"measurement": "Lymphocytic infiltration in the SGs", "setting": "[2]; 5 days after one single administration, hematoxylin/eosin", "result": "significantly reduced"},
      {"measurement": "Total number of cells present in the SGs", "setting": "[2]; [5]", "result": "no apparent effect"},
      {"measurement": "Weight of SGs (salivary glands)", "setting": "[2]; [5]", "result": "no statistically significant effect"},
      {"measurement": "CD4+T cells in SGs", "setting": "[2]; [6]", "result": "decreased"},
      {"measurement": "Total number of B cells in SGs", "setting": "[2]; [6]", "result": "no statistically significant effect"},
      {"measurement": "B cells", "setting": "[3]; [7]", "result": "59092 and 102246 and 42085 and 25443 and 116814 and 115000 and 53947 and 170980"},
      {"measurement": "DCs", "setting": "[3]; [7]", "result": "1034 and 2238 and 1793 and 242 and 586 and 1350 and 733 and 1928"},
      {"measurement": "Eosinophils", "setting": "[3]; [7]", "result": "955824 and 1404942 and 636065 and 342046 and 1283190 and 1036803 and 538210 and 1010686"},
      {"measurement": "Macrophages", "setting": "[3]; [7]", "result": "58705 and 118771 and 314326 and 126002 and 34364 and 38709 and 29121 and 73491"},
      {"measurement": "Neutrophils", "setting": "[3]; [7]", "result": "606700 and 510027 and 500004 and 147616 and 371317 and 487119 and 284503 and 24426"},
      {"measurement": "T cells", "setting": "[3]; [7]", "result": "400329 and 735865 and 383074 and 243813 and 469834 and 502985 and 334784 and 1056303"},
      {"measurement": "Total cells", "setting": "[3]; [7]", "result": "2140000 and 2992000 and 2190000 and 1010000 and 2310000 and 2220000 and 1270000 and 2410000"},
      {"measurement": "B cells", "setting": "[3]; [8]", "result": "2297 and 44688 and 22879 and 11101 and 7660"},
      {"measurement": "DCs", "setting": "[3]; [8]", "result": "0 and 484 and 461 and 319 and 160"},
      {"measurement": "Eosinophils", "setting": "[3]; [8]", "result": "124514 and 450346 and 448074 and 205568 and 239527"},
      {"measurement": "Macrophages", "setting": "[3]; [8]", "result": "130734 and 267685 and 360987 and 177815 and 73725"},
      {"measurement": "Neutrophils", "setting": "[3]; [8]", "result": "2584 and 35734 and 23986 and 34836 and 2394"},
      {"measurement": "T cells", "setting": "[3]; [8]", "result": "57711 and 323523 and 294011 and 208439 and 86810"},
      {"measurement": "Total cells", "setting": "[3]; [8]", "result": "448000 and 1390000 and 1510000 and 815000 and 484000"},
      {"measurement": "Inflammatory cell recruitment in BAL (in words)", "setting": "[3]; HDM-challenged mice, in comparison to the solvent group", "result": "no effect"},
      {"measurement": "Number of B cells, change vs solvent group", "setting": "[3]; [9]", "result": "−40", "unit": "%"},
      {"measurement": "Number of eosinophils, change vs solvent group", "setting": "[3]; [9]", "result": "−25", "unit": "%"},
      {"measurement": "Number of macrophages, increase vs solvent group", "setting": "[3]; [10]", "result": 4.5, "unit": "fold"},
      {"measurement": "Number of neutrophils, change vs solvent group", "setting": "[3]; [10]", "result": "−71", "unit": "%"},
      {"measurement": "DAI", "setting": "[4]; P140 i.v. days −2 and −1 vs saline, p=0.5386", "result": "Little difference"},
      {"measurement": "Colon size", "setting": "[4]; P140 i.v. days −2 and −1 vs saline, reflects decrease of inflammation, p=0.0011", "result": "significant increase"},
      {"measurement": "Body weight", "setting": "[4]; between the two groups", "result": "No difference"},
      {"measurement": "Day at which blood appeared in the feces", "setting": "[4]; control groups day +6", "result": "+8 day"}
    ]}
  ]
}
